Results: patent US20040023884A1, “Biologically active peptides from functional domains of bactericidal/permeability-increasing protein and uses thereof” (priority 1993, published 2004)
Ends that are not written are not given here.

Assays:
[1] = LPS binding by tryptophan fluorescence quenching
Excerpt: (§1) The naturally-occurring amino acid tryptophan can emit light (i.e., it fluoresces) having a wavelength between 300 and 400 nm after excitation with light having a wavelength of between about 280 nm and 290 nm, preferably 285 nm. The amount of emitted light produced by such fluorescence is known to be affected by the local environment, including pH and buffer conditions, as well as binding interactions between proteins and other molecules. Some BPI functional domain peptides derived from domains II and III contain tryptophan residues, and tryptophan fluorescence was used to assay binding interactions between the BPI functional domain peptides of the invention and LPS or heparin.
(§2) Tryptophan fluorescence of the BPI functional domain peptides of the invention was determined in the presence or absence of LPS or heparin using a SPEX Fluorolog fluorimeter. Samples were excited with 285 nm light using a 0.25 nm slitwidth. Emission wavelengths were scanned between 300-400 nm using a 1.25 nm slitwidth. Data were accumulated as the average of three determinations performed over an approximately 5 min time span. Samples were maintained at 25° C. or 37° C. during the course of the experiments using a circulating water bath. Crab endotoxin binding protein (CEBP), a protein wherein the intrinsic fluorescence of tryptophan residues is affected by binding to LPS, was used as a positive control. (See Wainwright et al., 1990, Cellular and Molecular Aspects of Endotoxin Reactions, Nowotny et al., eds., Elsevier Science Publishing B.V., The Netherlands, pp. 315-325).
(§3) Kd values were determined by Scatchard-type Stern-Volmer plots of the quenching data as the negative inverse of the slope of such plots. Comparing the data for BPI.10, BPI.46 and BPI.47, it is seen that as the Kd decreased (indicating an increase in avidity for LPS), the percent fluorescence quenching increased. The differences between these peptides include replacement of basic and polar amino acid residues with non-polar residues in […] as compared with BPI.10. In contrast, as the Kd of heparin binding decreased, a corresponding increase in the percentage of fluorescence quenching was not detected.

[2] = Heparin binding by tryptophan fluorescence quenching
Excerpt: as §1, §2, §3

[3] = test system: multi-resistant strain E. coli 19536; assay: Radial diffusion bactericidal assay, multi-antibiotic resistant E. coli 19536; assay type: cell-based
Description: These studies were conducted substantially following the procedures used in Example 2.
In order to test the bactericidal activity of BPI peptides against multi-antibiotic resistant E. coli, a multi-resistant strain E. coli 19536 (ampR 16 μg/mL; ceftazidimeR>16 μg/mL; ceftriazoneR>16 μg/mL) was tested. This strain is a clinical isolate obtained from the Baxter Microscan® library (Sacramento, Calif.). An overnight culture of E. coli 19536 was tested as described in Example 2 and part A above. Test BPI peptides were 2-fold serially diluted in D-PBS starting at about 1 mg/mL.

E. coli O86a:K61 = assay: Broth bactericidal assay, E. coli O86a:K61; assay type: cell-based; details: FIG. 11j

Row | Substance | Quenching LPS [1] [%] | Kd ([1]; Stern-Volmer plots) [nM] | Quenching Heparin [2] [%] | Kd ([2]; Stern-Volmer plots) [nM] | bactericidal activity (in words) [3] | bactericidal activity (in words) (E. coli O86a:K61)
1 | KWKAAARFLKKWKAAARFLK [BPI.48] | 62 | 83 | 41 | 800 | activity against multi-antibiotic resistant E. coli | –
2 | KWKAQKRFLKKSKVGWLIQLFHKK-NH2 (C-terminus assumed) [BPI.30] | – | – | – | – | – | showed bactericidal activity
